# BindingDB's records for doi:10.1111/j.1476-5381.1988.tb11723.x (Ciba-Geigy, 1988)
# “And” between values parts separate entries of the source, which are not always exact repeats. Equal values may be shown once.
# Target: Glutamate receptor ionotropic, NMDA 1 (Rattus norvegicus, UniProt P35439)
row,SMILES,Ki
1,O=C(O)c1cccc(C(=O)O)n1 [Dipicolinate],> 10000 nM
2,CCOC(=O)CC[C@H](N)C(=O)OCC [glutamic acid diethyl ester],> 10000 nM
3,CN[C@H](CC(=O)O)C(=O)O [NMDA],4100 nM and 5600 nM
4,"N[C@@H](CC(=O)O)C(=O)O [L-Aspartic acid, 2]",1400 nM and 1600 nM
5,"O=C(O)c1cccnc1C(=O)O [pyridine-2,3-dicarboxylic acid]",> 10000 nM
6,N[C@H](CCCP(=O)(O)O)C(=O)O [CB3371309],350 nM and 400 nM
7,NC(CCCCCP(=O)(O)O)C(=O)O (stereo not drawn) [DL-AP7],900 nM and 1100 nM
8,N[C@H](CC(=O)O)C(=O)O,800 nM and 900 nM
9,O=C(O)[C@@H]1C[C@H](CP(=O)(O)O)CCN1 [Selfotel],140 nM
10,O=C(O)[C@H]1CN(CCCP(=O)(O)O)CCN1 [CPP],220 nM and 150 nM
11,"N[C@@H](Cn1oc(=O)[nH]c1=O)C(=O)O [2-amino-3-(3,5-dioxo[1,2,4]oxadiazolidin-2-yl)propionic acid]",> 10000 nM
